Patent publication US20250275959A1, “COMPOUNDS AND METHODS OF THEIR USE” (LEXICON PHARMACEUTICALS, INC., priority 2024, published 2025)

Legend:
hACSL5 = hACSL5 (Homo sapiens (Human), UniProt Q9ULC5); assay: Human ACSL5 coupled enzyme Amplex Red assay; type: biochemical; details: read-out: hACSL5 IC50
How it was run: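 C-terminally His-tagged ACSL5 (33-683) from sf9 cells, 20 nM, was preincubated with compound in MOPS-NaOH pH 7.6 with MgCl2, peroxidase and acyl-CoA oxidase. Reactions were started with 25 μM oleate, 30 μM CoA, 1 mM ATP and 50 μM Amplex Red; fluorescence (535/590 nm) after 10 minutes at 25° C. was fitted to the Hill equation for IC50 and maximal inhibition.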

[1] = Murine diet-induced obesity (DIO) model, Compounds B-D study; type: in vivo, C57BL/6J mice; details: DIO mice; for mean adipose weights versus control group: abdominal adipose tissue; for ITT blood glucose versus control group: Day 32, at 15, 30, 60 and 90 minutes after insulin
Description: The effects of four representative compounds of the invention were tested in a mouse model of diet-induced obesity (DIO): • Compound A is (R)—N-(tert-butylsulfonyl)-4-(1-(5-(pyridin-3-yloxy)pyridin-2-yl)ethoxy)-3-(trifluoromethyl)benzamide; • Compound B is (R)-4-(1-(5-(cyclopropylmethoxy)pyridin-2-yl)propoxy)-N-((4-(2-(dimethylamino)ethoxy)phenyl)sulfonyl)-2,3-difluorobenzamide; • Compound C is (R)—N-((4-(2-(dimethylamino)ethoxy)piperidin-1l-yl)sulfonyl)-2,3-difluoro-4-(1-(5-(pyridin-2-yloxy)pyridin-2-yl)propoxy)benzamide; and • Compound D is (R)-2,3-difluoro-N-((4-methylpiperazin-1-yl)sulfonyl)-4-(1-(5-(pyridin-2-yloxy)pyridin-2-yl)propoxy)benzamide.
The mice used in these experiments were C57BL/6J mice fed a high-fat diet (D12492 from Research Diets) ad libitum during the study period. The vehicle and test article formulations were 10% w/v Solutol in water.
In this study, three compounds tested at 30 mg/kg were compared against vehicle control over a month. After their acclimation period, DIO mice were equally divided into groups of ten mice each based on body weight. The animals were pre-dosed for three days prior to formal dosing (once per day treatment every group), as well as weight and food intake were recorded from Day −2 onwards. From Day 1 to Day 27, the animals in the dosing group were administered orally by gavage at 5:00 p.m. every day. All animals were fasted overnight after dosing on Day 28 and Day 29. Then the blood (retro-orbital bleed) of mice from each group was collected at 7:00 a.m. to separate out the serum for measuring total cholesterol levels (TC), triglyceride (TG), aminotransferase alanine (ALT), aspartate aminotransferase (AST) and total bilirubin (TBil) levels on Day 29. On day 30, all animals were performed OGTT test (0 min, 15 min, 30 min, 60 min, 90 min and 120 min) and measured insulin levels (0 min, 15 min, 30 min and 60 min). On day 32, all animals were injected insulin after 4 hours fasting, then performed ITT test (0 min, 15 min, 30 min, 60 min and 90 min). On day 33, Epididymal white adipose tissue (eWAT), jejunum, liver, heart and brain were collected; eWAT, liver and heart weights were recorded. All of the adipose tissue in the abdominal cavity was collected and weighted, and the fatty tissue coefficient (body fat ratio) was calculated and then stored at −80° C. for inspection.
• 1. Body weight and Food Consumption: Pre-dose every day from Day −2 onwards. • 2. Day −2,—1 and Day 0: Handle mice and gavage with vehicle. • 3. Day 1˜27: Dose˜5:00 PM. • 4. Day 28: Dose˜5:00 PM. Fast overnight. • 5. Day 29: Determine total cholesterol levels and triglyceride, ALT, AST, total bilirubin levels˜7:00 AM. Resume feeding. • 6. Day 29: Dose˜5:00 PM. Fast overnight. • 7. Day 30: (No drug administration) Oral glucose tolerance test (OGTT) with glucose levels measured at Pre-dose, 15 min, 30 min, 60 min, 90 min and 120 min after the glucose challenge. And insulin levels will be test at time 0 min, 15 min, 30 min and 60 min after the glucose challenge. • 8. Day 30˜31: Dose˜5:00 PM. • 9. Day 32: (No drug administration) ITT test (two days after the OGTT test): Fast 4 h. After insulin injection, the levels of glucose will be measured at Pre-dose, 15 min, 30 min, 60 min and 90 min. • 10. After the ITT test. Collect serum with a terminal bleed from all 50 mice. • 11. Collect epidydimal WAT (eWAT) pad, jejunum, liver, heart, and brain. • 12. Record eWAT, liver, and heart weights. • 13. Before freezing tissue/serum: • (i) Assess Drug Concentration; serum, liver, eWAT, heart, jujenum, and brain. (25 serum samples; 5 mice/group will progress to biomarker study and remaining 25 serum samples saved for future analysis). • 14. Prepare liver, heart and eWAT tissue for histopathology analysis. • (ii) Liver for all 50 mice; HE staining to assess liver steatosis. • (iii) Heart or all 50 mice; HE and DAPI staining to assess cardiac morphology. […]

Chain of hACSL5 (Q9ULC5 33-683): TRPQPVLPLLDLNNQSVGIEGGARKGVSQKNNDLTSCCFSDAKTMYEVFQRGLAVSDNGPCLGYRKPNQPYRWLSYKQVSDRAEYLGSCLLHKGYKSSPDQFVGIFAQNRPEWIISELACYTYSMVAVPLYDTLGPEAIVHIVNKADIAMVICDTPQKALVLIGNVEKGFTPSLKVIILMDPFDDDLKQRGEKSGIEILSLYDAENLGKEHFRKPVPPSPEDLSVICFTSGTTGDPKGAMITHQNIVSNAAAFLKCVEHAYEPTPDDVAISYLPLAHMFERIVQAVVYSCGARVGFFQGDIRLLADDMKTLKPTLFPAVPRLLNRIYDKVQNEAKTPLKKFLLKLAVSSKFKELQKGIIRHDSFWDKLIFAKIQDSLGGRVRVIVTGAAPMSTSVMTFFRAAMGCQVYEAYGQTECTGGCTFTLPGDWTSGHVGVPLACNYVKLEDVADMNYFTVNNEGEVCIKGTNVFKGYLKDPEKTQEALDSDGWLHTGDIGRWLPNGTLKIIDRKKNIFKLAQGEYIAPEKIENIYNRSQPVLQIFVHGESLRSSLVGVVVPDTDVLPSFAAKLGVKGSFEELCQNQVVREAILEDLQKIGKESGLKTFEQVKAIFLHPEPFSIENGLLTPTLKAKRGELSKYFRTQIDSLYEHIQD

CC[C@@H](Oc1ccc(C(=O)NS(=O)(=O)N2CCC(OCCN(C)C)CC2)c(F)c1F)c1ccc(Oc2ccccn2)cn1 [Compound C, (R)-N-((4-(2-(dimethylamino)ethoxy)piperidin-1-yl)sulfonyl)-2,3-difluoro-4-(1-(5-(pyridin-2-yloxy)pyridin-2-yl)propoxy)benzamide]
IC50 (hACSL5): < 0.1 µM
mean body weight versus control group ([1]; 30 mg/kg oral daily): significantly lower than that of the control group from Day 23
overall food consumption versus control group ([1]; 30 mg/kg oral daily): significantly lower than that of the control group
Body Weight (g)/Day ([1]; 30 mg/kg oral daily, Day 1): 45 ± 4.9 g
Body Weight (g)/Day ([1]; 30 mg/kg oral daily, Day 2): 44.8 ± 5 g
Body Weight (g)/Day ([1]; 30 mg/kg oral daily, Day 3): 44.3 ± 4.9 g
Body Weight (g)/Day ([1]; 30 mg/kg oral daily, Day 4): 44.3 ± 4.9 g
Body Weight (g)/Day ([1]; 30 mg/kg oral daily, Day 5): 44.1 ± 4.9 g
Body Weight (g)/Day ([1]; 30 mg/kg oral daily, Day 6): 44 ± 4.7 g
Body Weight (g)/Day ([1]; 30 mg/kg oral daily, Day 7): 43.5 ± 4.9 g
Body Weight (g)/Day ([1]; 30 mg/kg oral daily, Day 8): 44 ± 5 g
Body Weight (g)/Day ([1]; 30 mg/kg oral daily, Day 9): 44.2 ± 4.8 g
Body Weight (g)/Day ([1]; 30 mg/kg oral daily, Day 10): 44.2 ± 4.7 g
Body Weight (g)/Day ([1]; 30 mg/kg oral daily, Day 11): 44.4 ± 4.8 g
Body Weight (g)/Day ([1]; 30 mg/kg oral daily, Day 12): 43.9 ± 4.9 g
Body Weight (g)/Day ([1]; 30 mg/kg oral daily, Day 13): 43.7 ± 4.7 g
Body Weight (g)/Day ([1]; 30 mg/kg oral daily, Day 14): 43.7 ± 4.7 g
Body Weight (g)/Day ([1]; 30 mg/kg oral daily, Day 15): 43.9 ± 4.8 g
Body Weight (g)/Day ([1]; 30 mg/kg oral daily, Day 16): 44.1 ± 4.8 g
Body Weight (g)/Day ([1]; 30 mg/kg oral daily, Day 17): 43.5 ± 4.7 g
Body Weight (g)/Day ([1]; 30 mg/kg oral daily, Day 18): 43.6 ± 4.6 g
Body Weight (g)/Day ([1]; 30 mg/kg oral daily, Day 19): 43.9 ± 4.9 g
Body Weight (g)/Day ([1]; 30 mg/kg oral daily, Day 20): 44.1 ± 4.8 g
Body Weight (g)/Day ([1]; 30 mg/kg oral daily, Day 21): 44.2 ± 5 g
Body Weight (g)/Day ([1]; 30 mg/kg oral daily, Day 22): 44.1 ± 5.1 g
Body Weight (g)/Day ([1]; 30 mg/kg oral daily, Day 23): 44.1 ± 5.3 g
Body Weight (g)/Day ([1]; 30 mg/kg oral daily, Day 24): 43.8 ± 5.3 g
Body Weight (g)/Day ([1]; 30 mg/kg oral daily, Day 25): 43.9 ± 5.2 g
Body Weight (g)/Day ([1]; 30 mg/kg oral daily, Day 26): 43.9 ± 5.2 g
Body Weight (g)/Day ([1]; 30 mg/kg oral daily, Day 27): 44.1 ± 5.2 g
Body Weight (g)/Day ([1]; 30 mg/kg oral daily, Day 28): 43.9 ± 5.3 g
Body Weight (g)/Day ([1]; 30 mg/kg oral daily, Day 29): 43.2 ± 5.2 g
Body Weight (g)/Day ([1]; 30 mg/kg oral daily, Day 30): 41.4 ± 5 g
Body Weight (g)/Day ([1]; 30 mg/kg oral daily, Day 31): 41.6 ± 5.2 g
Body Weight (g)/Day ([1]; 30 mg/kg oral daily, Day 32): 41 ± 5 g
Body Weight (g)/Day ([1]; 30 mg/kg, Day 0 (pre-dose)): 44.9 ± 5.1 g
Body Weight (g)/Day ([1]; 30 mg/kg, Day −1 (pre-dose)): 44.9 ± 5.3 g
Body Weight (g)/Day ([1]; 30 mg/kg, Day −2 (pre-dose)): 44.8 ± 5.2 g
mean adipose weights versus control group ([1]; 30 mg/kg): significantly lower than that of the control group
ITT blood glucose versus control group [1]: significantly lower than that of the control group

CC[C@@H](Oc1ccc(C(=O)NS(=O)(=O)N2CCN(C)CC2)c(F)c1F)c1ccc(Oc2ccccn2)cn1 [Compound D, (R)-2,3-difluoro-N-((4-methylpiperazin-1-yl)sulfonyl)-4-(1-(5-(pyridin-2-yloxy)pyridin-2-yl)propoxy)benzamide]
IC50 (hACSL5): < 0.1 µM
mean body weight versus control group ([1]; 30 mg/kg oral daily): significantly lower than that of the control group from Day 15 to the end
overall food consumption versus control group ([1]; 30 mg/kg oral daily): significantly lower than that of the control group
Body Weight (g)/Day ([1]; 30 mg/kg oral daily, Day 1): 44.9 ± 4.3 g
Body Weight (g)/Day ([1]; 30 mg/kg oral daily, Day 2): 44.3 ± 4 g
Body Weight (g)/Day ([1]; 30 mg/kg oral daily, Day 3): 43.6 ± 3.9 g
Body Weight (g)/Day ([1]; 30 mg/kg oral daily, Day 4): 43.7 ± 3.8 g
Body Weight (g)/Day ([1]; 30 mg/kg oral daily, Day 5): 43.7 ± 3.6 g
Body Weight (g)/Day ([1]; 30 mg/kg oral daily, Day 6): 43.5 ± 3.6 g
Body Weight (g)/Day ([1]; 30 mg/kg oral daily, Day 7): 43.4 ± 3.5 g
Body Weight (g)/Day ([1]; 30 mg/kg oral daily, Day 8): 43.7 ± 3.6 g
Body Weight (g)/Day ([1]; 30 mg/kg oral daily, Day 9): 43.5 ± 3.6 g
Body Weight (g)/Day ([1]; 30 mg/kg oral daily, Day 10): 43.3 ± 3.5 g
Body Weight (g)/Day ([1]; 30 mg/kg oral daily, Day 11): 42.9 ± 3.4 g
Body Weight (g)/Day ([1]; 30 mg/kg oral daily, Day 12): 42.6 ± 3.4 g
Body Weight (g)/Day ([1]; 30 mg/kg oral daily, Day 13): 42.3 ± 3.4 g
Body Weight (g)/Day ([1]; 30 mg/kg oral daily, Day 14): 42.3 ± 3.3 g
Body Weight (g)/Day ([1]; 30 mg/kg oral daily, Day 15): 42.4 ± 3.2 g
Body Weight (g)/Day ([1]; 30 mg/kg oral daily, Day 16): 42.3 ± 3.2 g
Body Weight (g)/Day ([1]; 30 mg/kg oral daily, Day 17): 42.1 ± 3.4 g
Body Weight (g)/Day ([1]; 30 mg/kg oral daily, Day 18): 42.2 ± 3.4 g
Body Weight (g)/Day ([1]; 30 mg/kg oral daily, Day 19): 42.3 ± 3.5 g
Body Weight (g)/Day ([1]; 30 mg/kg oral daily, Day 20): 42.3 ± 3.6 g
Body Weight (g)/Day ([1]; 30 mg/kg oral daily, Day 21): 42.3 ± 3.6 g
Body Weight (g)/Day ([1]; 30 mg/kg oral daily, Day 22): 42.3 ± 3.7 g
Body Weight (g)/Day ([1]; 30 mg/kg oral daily, Day 23): 42.3 ± 3.7 g
Body Weight (g)/Day ([1]; 30 mg/kg oral daily, Day 24): 42.2 ± 3.8 g
Body Weight (g)/Day ([1]; 30 mg/kg oral daily, Day 25): 42.4 ± 3.4 g
Body Weight (g)/Day ([1]; 30 mg/kg oral daily, Day 26): 42.5 ± 3.5 g
Body Weight (g)/Day ([1]; 30 mg/kg oral daily, Day 27): 42.5 ± 3.7 g
Body Weight (g)/Day ([1]; 30 mg/kg oral daily, Day 28): 42.5 ± 3.9 g
Body Weight (g)/Day ([1]; 30 mg/kg oral daily, Day 29): 41.8 ± 3.8 g
Body Weight (g)/Day ([1]; 30 mg/kg oral daily, Day 30): 39.5 ± 3.6 g
Body Weight (g)/Day ([1]; 30 mg/kg oral daily, Day 31): 39.7 ± 3.9 g
Body Weight (g)/Day ([1]; 30 mg/kg oral daily, Day 32): 38.9 ± 3.8 g
Body Weight (g)/Day ([1]; 30 mg/kg, Day 0 (pre-dose)): 44.9 ± 4.3 g
eWAT coefficient versus control group ([1]; 30 mg/kg, Day 33): slightly lower than that of the control group
eWAT weights versus control group ([1]; 30 mg/kg, Day 33): significantly lower than that of the control group
Body Weight (g)/Day ([1]; 30 mg/kg, Day −1 (pre-dose)): 44.8 ± 4.1 g
Body Weight (g)/Day ([1]; 30 mg/kg, Day −2 (pre-dose)): 44.9 ± 4.1 g
mean adipose weights versus control group ([1]; 30 mg/kg): significantly lower than that of the control group
ITT blood glucose versus control group [1]: significantly lower than that of the control group
